Common to all, as to type: cell-based
In experiment [1] the test system is B. napus microspore cultures. Description: Microspore embryogenesis induction in isolated microspore culture (proembryos at 4 days), liquid medium. The conditions noted are these: for concentrations that provided an improvement of embryogenesis initiation yield: B. napus microspore cultures, proembryos at 4 days vs control, 3-4 concentrations tested; for increase in the percentage of proembryos: 4 days, vs control cultures normalized to 100%. The procedure:
B. napus L. (rapeseed) cv. ‘Topas’ line DH407 plants were used as donor plants. Rapeseed seeds were germinated and grew under controlled conditions (relative humidity 60%, 15° C. under long-day photoperiod 16 h light and 8 h dark at 10° C.) in a growth chamber in pots containing a mixture of organic substrate and vermiculite (2/1, v/v).
Flower buds containing vacuolated microspores, the most responsive stage for microspore induction, were isolated for microspore culture as previously described (Prem et al., 2012 BMC Plant Biology 12, 127). The selected buds were surface-sterilized in 5.0% (v/v) commercial bleach (5% active chlorine) for 20 min and then rinsed 6-7 times with sterile distilled water. Ten to 15 buds were crushed using a cold mortar and pestle in 5 ml of cold NLN-13 medium containing 13% sucrose (w/v). The suspension was filtered through 48 μm nylon mesh and the filtrate collected in 15-ml falcon centrifuge tubes. The crushed buds were rinsed with 5 ml NLN-13 to make up the volume to 10 ml and the filtrate was then centrifuged at 1100 rpm for 5 min at 4° C. The pellet was re-suspended in 10 ml of cold NLN-13 and centrifuged as mentioned above. This process was repeated three times for washing of the microspores. The final pellet was suspended in the NLN-13, and the cell density was adjusted to 10,000 cells per ml. The cell suspension was then poured into 90-mm Petri dishes (10 ml per Petri dish) and cultured in darkness. For embryogenesis induction, microspore cultures were subjected to an in vitro stress treatment of 32° C. for 15 days. In response to the inductive treatment, responsive microspores divide and produce multicellular structures or proembryos, still confined within the microspore wall (exine). Such structures are considered to be the first sign of embryogenesis initiation; they can be found after 4-6 days in culture. When globular/heart shaped embryos were observed (around 20 days), cultures were shifted to 25° C. on a gyratory shaker at 60 rpm until complete development and maturation of the embryos was observed (FIG. 1), normally around 30 days in culture.
The compounds were added to the microspore liquid culture media by using stock solutions of 10 mM in DMSO. Appropriate volumes of stock solutions of the drugs were added to the culture media to get the selected working concentrations of the inhibitors, keeping DMSO concentration below 0.2%. • In B. napus microspore cultures: 4-benzyl-2-methyl-1,2,4-thiadozilidine-3,5-dione (TDZD8), 5-(2-Morpholinethylimino)-2,3-diphenyl-2,5-dihydro-1,2,4-thiadiazole (VP3.15), 3-acetyl-4-(1-methyl-1H-indol-3-yl)-1H-pirrol-2,5-dione (VP3.36), 4-hydroxy-1-ethyl-N′-palmitoyl-2-oxo-1,2-dihydroquinoline-3-carbohydrazide (VP0.7), N-(6-methylbenzothiazole-2-yl)-4-morpholinobenzamide (JZ1.3), N-(6-fluorobenzothiazole-2-yl)-4-morpholinobenzamide, (JZ1.6) and N-(6-bromobenzothiazole-2-yl)-4-morpholinobenzamide (JZ1.24). and (E,Z)-3-(morpholinoimino)indolin-2-one (IGS4.75) were tested at 3-4 different concentrations, ranging from 0.5 to 5 μM. • In H. vulgare microspore cultures: 4-benzyl-2-methyl-1,2,4-thiadozilidine-3,5-dione (TDZD8) and N-(6-bromobenzothiazole-2-yl)-4-morpholinobenzamide (JZ1.24) inhibitors at the selected concentrations (2.5 μM and […], respectively) were tested.
The compounds were added from culture initiation and their effect on embryogenesis efficiency was assessed. Several plates of the same cultures were kept without the inhibitors, as controls.
Embryogenesis induction was quantified in control and treated-cultures by the number of proembryos formed (considered the first sign of embryogenesis initiation), as previously described, and by the number of embryos produced after 40 days. Proembryos were easily identified under inverted microscope in 4 day-culture plates as rounded multicellular structures with higher size and density than microspores, still surrounded by the exine (special microspore wall). […]

The test system of experiment [2] is proembryos of B. napus microspore cultures. Description: DAPI staining of proembryos, fluorescence microscopy of squash preparations. The conditions noted are these: 4 days in culture. The method, then:
In order to evaluate whether proembryo structures of treated cultures, identified under the inverted microscope for quantification, were actually dividing microspores, similar to the same structures in control cultures, a simply staining technique was performed to visualize nuclei inside proembryos. Samples from control and treated-cultures of 4 days, containing proembryos, were stained with 10 μg/mL 4′,6-diamidine-2-phenyl indole dihydrochloride (DAPI). Squash preparations were analysed under fluorescence microscopy using UV excitation for observing nuclei.

In experiment [3] the test system is H. vulgare microspore cultures. Description: Microspore embryogenesis induction in isolated microspore culture (proembryos at 4 days, embryos at 40 days), liquid medium. The conditions noted are these: for increase in proembryo formation: 4 days; for increment of total number of embryos produced per plate: 40 days, vs control, selected concentrations (2.5 μM TDZD8, 5 μM JZ1.24). The method, then:
H. vulgare L. cv. Igri plants were used as donor plants. Seeds were vernalized in soil for one month at 4° C., and then transferred for one month in a plant growth chamber at 18° C. for germination and growth. Finally, plants were transferred to a greenhouse under 18° C. temperature.
Spikes containing microspores at the stage of vacuolated microspore, the most responsive stage for embryogenesis induction, were collected and surface sterilized by immersion in 5% bleach for 20 min, followed by 4 washes with sterile distilled water. Isolated microspore culture was settled as previously described (Rodŕiguez-Serrano et al., 2012, Journal of Experimental Botany 63(5), 2007-2024). The sterilized spikes were pre-treated at 4° C. for 21-24 days as stress treatment to induce microspore embryogenesis. Microspore were isolated blending spikes in 20 ml of pre-cooled 0.4 M mannitol at 4° C., using a Waring Blender pre-cooled in a refrigerator at −20° C., and the extract was filtered through a 100 μm nylon mesh into a beaker pre-cooled at −20° C. The collected microspore suspension was transferred into a 50 ml tube and centrifuged at 800 rpm for 10 min at 4° C. After removing the supernatant, the pellet was resuspended in 4 ml of pre-cooled 0.55 M maltose and transferred in 15 ml falcon tube. 1.5 ml of 0.4 M mannitol solution were cautiously added unmixed. After gradient centrifugation at 800 rpm for 10 min at 4° C., the interphase band consisting of an almost pure population of vacuolated microspores was resuspended in 0.4M mannitol solution giving a final volume of 10 ml. After counting cells in the Neubauer chamber, the pelleted microspores were diluted in an appropriate volume of KBP medium to obtain a cell density of 1.1×10^5 cells per ml, and plated in 30 mm Petri dishes, at a volume of 1 ml per plate. Then, microspore cultures were incubated at 25° C. in the dark, and microspores reprogrammed and produced multicellular structures/proembryos that can be found after 4-6 days in culture, as the first sign of embryogenesis initiation. Proembryos further developed and produced coleoptylar and mature embryos (FIG. 2), which were observed after 30 days.
The compounds were added to the microspore liquid culture media by using stock solutions of 10 mM in DMSO. […]
The compounds were added from culture initiation and their effect on embryogenesis efficiency was assessed. […]
Embryogenesis induction was quantified in control and treated-cultures by the number of proembryos formed (considered the first sign of embryogenesis initiation), as previously described, and by the number of embryos produced after 40 days. […]

Values joined by “and” are separate entries in the source; they are usually repeats but may differ in a detail not shown here. Identical values can stand only once.

Consider `c1ccc(-c2nc(=NCCN3CCOCC3)sn2-c2ccccc2)cc1` [VP3.15, 5-(2-Morpholinethylimino)-2,3-diphenyl-2,5-dihydro-1,2,4-thiadiazole], for which, in experiment [1], the “concentrations that provided an improvement of embryogenesis initiation yield” value worked out at 2.5 µM.

`O=C(Nc1nc2ccc(F)cc2s1)c1ccc(N2CCOCC2)cc1` [JZ1.6, N-(6-fluorobenzothiazole-2-yl)-4-morpholinobenzamide]: in experiment [1], the “concentrations that provided an improvement of embryogenesis initiation yield” value was found to be 1 µM.

Turning to `CC(=O)C1=C(c2cn(C)c3ccccc23)C(=O)NC1=O` [VP3.36, 3-acetyl-4-(1-methyl-1H-indol-3-yl)-1H-pirrol-2,5-dione], the “concentrations that provided an improvement of embryogenesis initiation yield” value in experiment [1] stood at 2.5 µM.

For `Cn1sc(=O)n(Cc2ccccc2)c1=O` [TDZD8, 4-benzyl-2-methyl-1,2,4-thiadozilidine-3,5-dione, reference compound], the “nuclei in proembryos (DAPI staining)” value in experiment [2] is “proembryos contain several nuclei”. Also, the “increase in proembryo formation” value in experiment [3] (2.5 μM) was 27%. Moreover, in experiment [3], the “increment of total number of embryos produced per plate” value was 15%. The “increase in the percentage of proembryos” value in experiment [1] (0.5 μM) is 20%. Moreover, the “concentrations that provided an improvement of embryogenesis initiation yield” value in experiment [1] was 0.5 µM and 1 µM.

For the compound `O=C1Nc2ccccc2C1=NN1CCOCC1` [IGS4.75, (E,Z)-3-(morpholinoimino)indolin-2-one], in experiment [1], the “concentrations that provided an improvement of embryogenesis initiation yield” value was 5 µM.

As for `Cc1ccc2nc(NC(=O)c3ccc(N4CCOCC4)cc3)sc2c1` [JZ1.3, N-(6-methylbenzothiazole-2-yl)-4-morpholinobenzamide], in experiment [1], the “concentrations that provided an improvement of embryogenesis initiation yield” value came to 5 µM.

With `O=C(Nc1nc2ccc(Br)cc2s1)c1ccc(N2CCOCC2)cc1` [JZ1.24, N-(6-bromobenzothiazole-2-yl)-4-morpholinobenzamide], in experiment [3] (5 μM), the “increase in proembryo formation” value was 47%. The “increment of total number of embryos produced per plate” value in experiment [3] was 22%. Besides, in experiment [1] (2.5 μM), the “increase in the percentage of proembryos” value came out at 27.5%. Besides, the “concentrations that provided an improvement of embryogenesis initiation yield” value in experiment [1] came to 2.5 µM.

On to `CCCCCCCCCCCCCCCC(=O)NNC(=O)c1c(O)c2ccccc2n(CC)c1=O` [VP0.7, 4-hydroxy-1-ethyl-N′-palmitoyl-2-oxo-1,2-dihydroquinoline-3-carbohydrazide], for which, in experiment [1], the “concentrations that provided an improvement of embryogenesis initiation yield” value came to 5 µM.

For the origin of these results see US20230025843A1, “MAMMAL KINASE INHIBITORS TO PROMOTE IN VITRO EMBRYOGENESIS INDUCTION OF PLANTS” (CONSEJO SUPERIOR DE INVESTIGACIONES CIENTIFICAS (CSIC), priority 2019, published 2023).
